Measurements published in the NIST ThermoML archive (doi:10.1016/j.jct.2012.01.013).

Assay: xn = mol fraction of the nth substance listed
Details: 101 kPa, Liquid; for viscosity: Falling or rolling sphere viscometry; for mass density: Vibrating tube method

CC(=O)[O-].Cn1cc[nH+]c1 [1-methylimidazolium acetate] + O
Details | mass density, 293.15 K [kg/m3] | mass density, 298.15 K [kg/m3] | mass density, 303.15 K [kg/m3] | mass density, 308.15 K [kg/m3] | mass density, 313.15 K [kg/m3] | viscosity, 293.15 K [mPa·s] | viscosity, 298.15 K [mPa·s] | viscosity, 303.15 K [mPa·s] | viscosity, 308.15 K [mPa·s] | viscosity, 313.15 K [mPa·s]
x1 = 0.0496 | 1050.26 | 1047.88 | 1045.35 | 1042.68 | 1039.87 | 2.361 | 2.05 | 1.797 | 1.59 | 1.419
x1 = 0.0999 | 1080.12 | 1076.77 | 1073.32 | 1069.76 | 1066.09 | 4.352 | 3.682 | 3.154 | 2.73 | 2.363
x1 = 0.2007 | 1099.43 | 1095.11 | 1090.72 | 1086.27 | 1081.75 | 8.567 | 7.087 | 5.755 | 4.731 | 4.082
x1 = 0.2985 | 1099.75 | 1095.2 | 1090.61 | 1085.97 | 1081.29 | 11.17 | 9.095 | 7.498 | 6.239 | 5.265
x1 = 0.3986 | 1096.26 | 1091.68 | 1087.07 | 1082.42 | 1077.74 | 11.62 | 9.434 | 7.776 | 6.521 | 5.535
x1 = 0.496 | 1092.17 | 1087.6 | 1083 | 1078.38 | 1073.73 | 11.27 | 9.212 | 7.655 | 6.419 | 5.459
x1 = 0.6467 | 1087.46 | 1082.93 | 1078.39 | 1073.83 | 1069.26 | 10.44 | 8.538 | 7.137 | 6.085 | 5.234
x1 = 0.7954 | 1083.49 | 1079.01 | 1074.5 | 1069.99 | 1065.48 | 9.391 | 7.858 | 6.641 | 5.663 | 4.895
x1 = 0.8987 | 1081.48 | 1077.03 | 1072.55 | 1068.08 | 1063.6 | 8.655 | 7.299 | 6.193 | 5.304 | 4.584

CC(=O)[O-].Cn1cc[nH+]c1 [1-methylimidazolium acetate] + CO
Details | mass density, 293.15 K [kg/m3] | mass density, 298.15 K [kg/m3] | mass density, 303.15 K [kg/m3] | mass density, 308.15 K [kg/m3] | mass density, 313.15 K [kg/m3] | viscosity, 293.15 K [mPa·s] | viscosity, 298.15 K [mPa·s] | viscosity, 303.15 K [mPa·s] | viscosity, 308.15 K [mPa·s] | viscosity, 313.15 K [mPa·s]
x1 = 0.05 | 841.99 | 837.15 | 832.29 | 827.39 | 822.47 | 0.818 | 0.758 | 0.704 | 0.657 | 0.615
x1 = 0.1008 | 880.4 | 875.53 | 870.63 | 865.7 | 860.74 | 1.049 | 0.964 | 0.889 | 0.822 | 0.763
x1 = 0.1994 | 936.43 | 931.59 | 926.72 | 921.83 | 916.92 | 1.568 | 1.424 | 1.317 | 1.189 | 1.093
x1 = 0.2997 | 974.67 | 969.87 | 965.05 | 960.22 | 955.37 | 2.134 | 1.936 | 1.747 | 1.585 | 1.445
x1 = 0.4 | 1002.67 | 997.94 | 993.18 | 988.42 | 983.63 | 2.806 | 2.428 | 2.193 | 1.991 | 1.822
x1 = 0.4979 | 1023.14 | 1018.47 | 1013.77 | 1009.07 | 1004.35 | 3.486 | 2.986 | 2.672 | 2.399 | 2.195
x1 = 0.651 | 1046.77 | 1042.19 | 1037.58 | 1032.97 | 1028.34 | 4.706 | 4.006 | 3.541 | 3.133 | 2.81
x1 = 0.8011 | 1063.57 | 1059.06 | 1054.54 | 1050 | 1045.45 | 6.119 | 5.207 | 4.509 | 3.927 | 3.454
x1 = 0.9012 | 1072.29 | 1067.83 | – | 1058.86 | 1054.36 | 7.161 | 6.065 | 5.2 | 4.485 | 3.912

CC(=O)[O-].Cn1cc[nH+]c1 [1-methylimidazolium acetate] + CCCO
Details | mass density, 293.15 K [kg/m3] | mass density, 298.15 K [kg/m3] | mass density, 303.15 K [kg/m3] | mass density, 308.15 K [kg/m3] | mass density, 313.15 K [kg/m3] | viscosity, 293.15 K [mPa·s] | viscosity, 298.15 K [mPa·s] | viscosity, 303.15 K [mPa·s] | viscosity, 308.15 K [mPa·s] | viscosity, 313.15 K [mPa·s]
x1 = 0.0504 | 827.73 | 823.56 | 819.35 | 815.11 | 810.83 | 2.22 | 1.974 | 1.753 | 1.566 | 1.402
x1 = 0.0999 | 850.08 | 845.8 | 841.47 | 837.11 | 832.72 | 2.359 | 2.088 | 1.855 | 1.656 | 1.485
x1 = 0.2005 | 891.09 | 886.69 | 882.25 | 877.78 | 873.27 | 2.757 | 2.429 | 2.152 | 1.918 | 1.718
x1 = 0.3005 | 926.35 | 921.89 | 917.41 | 912.89 | 908.35 | 3.202 | 2.795 | 2.481 | 2.206 | 1.973
x1 = 0.4013 | 957.27 | 952.8 | 948.29 | 943.76 | 939.2 | 3.698 | 3.231 | 2.851 | 2.517 | 2.25
x1 = 0.5014 | 984.26 | 979.77 | 975.25 | 970.72 | 966.17 | 4.234 | 3.682 | 3.228 | 2.852 | 2.536
x1 = 0.6501 | 1018.37 | 1013.89 | 1009.37 | 1004.85 | 1000.32 | 5.113 | 4.402 | 3.835 | 3.363 | 2.975
x1 = 0.7946 | 1046.51 | 1042.04 | 1037.55 | 1033.05 | 1028.55 | 6.141 | 5.212 | 4.517 | 3.947 | 3.482
x1 = 0.8952 | 1063.47 | 1059.02 | 1054.56 | 1050.08 | 1045.6 | 7.087 | 6.009 | 5.148 | 4.447 | 3.905

CC(=O)[O-].Cn1cc[nH+]c1 [1-methylimidazolium acetate] + CCO
Details | mass density, 293.15 K [kg/m3] | mass density, 298.15 K [kg/m3] | mass density, 303.15 K [kg/m3] | mass density, 308.15 K [kg/m3] | mass density, 313.15 K [kg/m3] | viscosity, 293.15 K [mPa·s] | viscosity, 298.15 K [mPa·s] | viscosity, 303.15 K [mPa·s] | viscosity, 308.15 K [mPa·s] | viscosity, 313.15 K [mPa·s]
x1 = 0.0495 | 823.45 | 819.02 | 814.55 | 810.04 | 805.49 | 1.366 | 1.236 | 1.123 | 1.024 | 0.938
x1 = 0.0964 | 851.37 | 846.85 | 842.29 | 837.69 | 833.06 | 1.578 | 1.421 | 1.268 | 1.153 | 1.052
x1 = 0.2004 | 902.14 | 897.55 | 892.91 | 888.25 | 883.55 | 1.995 | 1.789 | 1.612 | 1.458 | 1.325
x1 = 0.2986 | 940.21 | 935.59 | 930.94 | 926.27 | 921.57 | 2.485 | 2.212 | 1.981 | 1.784 | 1.614
x1 = 0.401 | 972.28 | 967.67 | 963.03 | 958.37 | 953.69 | 3.048 | 2.695 | 2.399 | 2.148 | 1.935
x1 = 0.4973 | 997.47 | 992.88 | 988.27 | 983.64 | 978.99 | 3.642 | 3.199 | 2.833 | 2.524 | 2.264
x1 = 0.6499 | 1029.38 | 1024.83 | 1020.26 | 1015.69 | 1011.1 | 4.686 | 4.061 | 3.576 | 3.146 | 2.798
x1 = 0.8003 | 1053.98 | 1049.49 | 1044.97 | 1040.45 | 1035.92 | 5.85 | 5.024 | 4.363 | 3.826 | 3.384
x1 = 0.8941 | 1066.93 | 1062.47 | 1057.99 | 1053.51 | 1049.01 | 6.855 | 5.847 | 5.04 | 4.357 | 3.829

CC(=O)[O-].Cn1cc[nH+]c1 [1-methylimidazolium acetate] + CCCCO
Details | mass density, 293.15 K [kg/m3] | mass density, 298.15 K [kg/m3] | mass density, 303.15 K [kg/m3] | mass density, 308.15 K [kg/m3] | mass density, 313.15 K [kg/m3] | viscosity, 293.15 K [mPa·s] | viscosity, 298.15 K [mPa·s] | viscosity, 303.15 K [mPa·s] | viscosity, 308.15 K [mPa·s] | viscosity, 313.15 K [mPa·s]
x1 = 0.0506 | 828.66 | 824.7 | 820.7 | 816.68 | 812.62 | – | 2.579 | 2.208 | 1.956 | 1.741
x1 = 0.1008 | 847.12 | 843.04 | 838.93 | 834.78 | 830.61 | 2.905 | 2.607 | 2.251 | 1.997 | 1.781
x1 = 0.1979 | 880.83 | 876.62 | 872.36 | 868.1 | 863.78 | 3.194 | 2.829 | 2.462 | 2.182 | 1.944
x1 = 0.2995 | 913.82 | 909.53 | 905.18 | 900.8 | 896.49 | 3.551 | 3.124 | 2.731 | 2.419 | 2.15
x1 = 0.4002 | 943.73 | 939.37 | 934.99 | 930.59 | 926.17 | 3.934 | 3.431 | 3.011 | 2.661 | 2.367
x1 = 0.4999 | 970.97 | 966.57 | 962.15 | 957.72 | 953.27 | 4.413 | 3.813 | 3.334 | 2.922 | 2.606
x1 = 0.6505 | 1008.21 | 1003.78 | 999.34 | 994.88 | 990.41 | 5.321 | 4.556 | 3.936 | 3.447 | 3.056
x1 = 0.7977 | 1040.65 | 1036.22 | 1031.77 | 1027.33 | 1022.9 | 6.49 | 5.533 | 4.739 | 4.068 | 3.538
x1 = 0.9013 | 1061.34 | 1056.91 | 1052.46 | 1048.01 | 1043.57 | 7.367 | 6.225 | 5.314 | 4.553 | 3.944
